This note sets out measurements from patent US8071556B2, “Peptide substance revealing a stress protective effect, pharmaceutical composition on its base, and the method of its application” (Obschestvo S Ogranichennoi Otvetstevennostyu “Sia Peptides”, priority 2006, dated 2011).

For data set [1], the system named is enkephalinases in human blood serum. Nature of the data set: Activity of enkephalinases in human blood serum ([3H]Leu-enkephalin disintegration). The format is biochemical. Conditions: 0.15 μM [3H]Leu-enkephalin. The method, then:
The ability of peptide H-Glu-Asp-Gly-OH to influence the activity of endogen opioid peptide degradation enzymes, i.e. […], was estimated in kinetic studies judging by disintegration of low concentrations (0.15 μM) of [^3H]Leu-enkephalin by human blood serum enzymes. Commonly used enkephalinase inhibitors N-carboxymethyl-Phe-Leu (N-CMPL) and bacitracin were used as comparison substances. Summary enkephalinase activity of the blood serum taken from 5 healthy donors, was estimated in vitro. Results were evaluated after 4 studies.

For data set [2], the system named is biogen amines in rat brain cortex. The data set is described as follows: Level of biogen amines in rat brain cortex after peptide administration. The format is in vivo. Conditions: 2.5 μg/kg intraperitoneal daily for 5 days, vs control (FIG. 1). The method, then:
(§1) The study was performed on 27 white mongrel rats of both sexes with body weight of 300-320 g.
(§2) The animals were subjected to intraperitoneal injection of peptide H-Glu-Asp-Gly-OH in the dose of 2.5 μg/kg in 0.5 ml of sterile 0.9% NaCl solution daily for 5 days.
(§3) Control rats received sterile 0.9% NaCl solution in the same volume and by the same schedule.
(§4) Upon completion of peptide administration the animals were decapitated, and the content of noradrenaline, dopamine, 5-oxyindolacetic acid, serotonin and histamine was evaluated in the brain cortex and blood serum.

Data set [3] can be described thus: Sub-acute toxicity, 90 days intramuscular administration. The settings on record: rats; intramuscular daily for 90 days; doses exceeding the therapeutic one by 100-1000 times. The format is in vivo, white mongrel male rats. The text has this: (§5) Common toxicity of peptide H-Glu-Asp-Gly-OH was studied according to the requirements stated in the “Manual for experimental (pre-clinical) study of new pharmacological substances” (2000): acute toxicity in case of single administration of the substance, as well as sub-acute and chronic toxicity in case of long-term administration of the peptide.
Sub-acute toxicity was studied on 64 white mongrel male rats with body weight of 180-220 g. Experimental animals daily, once a day, for 90 days received the substance intramuscularly in the doses of 1 μg/kg, 0.1 mg/kg, 1 mg/kg in 0.5 ml of sterile 0.9% NaCl solution. Control animals received sterile 0.9% NaCl solution in the same volume. Morphological composition and properties of the animals' peripheral blood was studied before the administration of the substance, as well as on the 30th, 60th and 90th day after the beginning of the administration of the substance. Biochemical and coagulologic indices of the blood were studied upon completion of the experiment.

The test system of data set [4] is c-Fos protein in rat pineal gland. The data set is described as follows: c-Fos protein level and parenchyma status in rat pineal gland in osmotic stress. The settings on record: rats, 48-hour osmotic stress. The format is in vivo. The method, then:
Effect of intranasally administered H-Glu-Asp-Gly-OH peptide on c-Fos protein content in stress-affected rat pineal gland was studied. Immunohistochemical study of c-Fos protein content was performed in two groups of rats—intact and subjected to 48-hour osmotic stress. The latter were intranasally administered with peptide H-Glu-Asp-Gly-OH in the dose of 0.5 μg per animal in 0.1 ml of sterile physiological 0.9% NaCl solution (last infusion was performed 2 hours before taking the material). Pineal gland parenchyma in all groups of animals was studied using light optical appliances.

The subject of data set [5] is biogen amines in rat blood serum. The data set is described as follows: Level of biogen amines in rat blood serum after peptide administration. The format is in vivo. The settings on record: 2.5 μg/kg intraperitoneal daily for 5 days, vs control (FIG. 2). The procedure: as §1, §2, §3, §4
The nature of data set [6]: Human functional status under low oxygen partial pressure (pressure chamber rise to 5000 meters). The format is in vivo. The settings on record: healthy men. The procedure:
Effect of peptide H-Glu-Asp-Gly-OH on human functional status and working ability in extreme conditions under the effect of low oxygen partial pressure was studied by examining 80 healthy men aged 20-22 years. The participants of the study were subdivided into 3 groups: 20 men formed the control group, while main groups I and II consisted of 30 persons each. Background study, including the examination of respiratory, cardiovascular and central nervous systems was performed on the first day of the experiment.
After the completion of background study the members of main group I began receiving the pharmaceutical composition, containing peptide H-Glu-Asp-Gly-OH as its active base, by intranasal infusions, in the dose of 5.0 mg in 1 ml of physiological solution (subgroup I), in the dose of 100.0 μg (subgroup II) and in the dose of 1.0 μg in 1.0 ml of physiological solution (subgroup III) […], for 2 days. Thus, the members of main group I received the peptide H-Glu-Asp-Gly-OH intranasally in the dose of 10 mg (subgroup I), 200 μg (subgroup II) and 2 μg (subgroup III) per course.
Members of main group II began receiving the pharmaceutical composition, containing the peptide H-Glu-Asp-Gly-OH as its active base, after the completion of background study, intramuscularly, in the dose of 5.0 mg in 1 ml of physiological solution (subgroup I), in the dose of 100.0 μg (subgroup II) and in the dose of 1.0 μg in 1.0 ml of physiological solution (subgroup III) daily, once a day, for 2 days.
Members of the control group received placebo in the form water for injections.
On the 4th day of the experiment the members of all 3 groups were subjected to the effect of hypoxic hypoxia by “rising” them to the altitude of 5000 meters for 60 minutes of exposition without auxiliary oxygen supply, which was imitated using the pressure chamber SBK-80. Participants of the experiment were shortly examined before the beginning of the “rise”, during the experiment and after its completion. On the 5th day of the experiment all participants were subjected to a full scale final examination. During the study reactive anxiety in all participants was on the moderate level (31-45 points). […] After 2 days of administration of the pharmaceutical composition containing peptide H-Glu-Asp-Gly-OH in different doses as its active base reactive anxiety in participants of the experiment was reduced by 10-13% depending on the dosage and method of administration of the pharmaceutical composition as compared to the members of the control group.

On the set-up of data set [7]: species or system male guinea pigs. Conditions: guinea pig, in vivo. The method, then: as §5
The studies of chronic toxicity were conducted for 6 months, basing on the term of recommended clinical administration of the substance, on 92 male guinea pigs with body weight of 310-350 g. Experimental animals received the peptide daily, once a day, intramuscularly, for 6 months in the doses of 1 μg/kg, 0.1 mg/kg, 1 mg/kg in 0.5 ml of sterile 0.9% NaCl solution. Control animals received sterile 0.9% NaCl solution in the same volume and by the same schedule. Traditional methods were used for the evaluation of the following indices of the animals' peripheral blood: the quantity of erythrocytes, hemoglobin, reticulocytes, thrombocytes, leukocytes, leukocyte formula, erythrocyte sedimentation rate (ESR), erythrocyte resistance. Alongside with that, the content of total protein in the serum was identified using Lowry's method, as well as potassium and sodium content using the method of plasma spectrophotometry. After the completion of the experiment pathomorphologic studies of animal brain and spinal cord, spinal cord ganglia, thyroid gland, parathyroid glands, adrenal glands, testis, pituitary gland, heart, lungs, aorta, liver, kidneys, urinary bladder, pancreas, stomach, small intestine, large intestine, thymus, spleen, lymph nodes and bone marrow were performed.

The subject of data set [8] is c-fos gene expression in the neurons of rat hypothalamic paraventricular nucleus. Nature of the data set: c-fos gene expression in neurons of rat hypothalamic paraventricular nucleus under emotional stress. The format is in vivo, Wistar rats. The procedure: The effect of peptide H-Glu-Asp-Gly-OH was studied in the paraventicular nucleus of hypothalamus (PVH) in stress-resistant and stress-prone animals, as well as in rats exposed to emotional stress.
The experiments were conducted on 28 Wistar rats.
Behavior of the animals was preliminarily (for the purpose of identifying the extent of their resistance to emotional stress) estimated in the “open field” test. The effectiveness of peptide H-Glu-Asp-Gly-OH was studied on stress-resistant and stress-prone rats. Peptide H-Glu-Asp-Gly-OH was administered intraperitoneally in the doses of 0.1 and 0.01 μg per rat 7-10 days after the first “open field” test. One hour after the injection the rats were exposed to the 60 minutes emotional stress, which was modulated by motional restriction.
To identify the cells, containing Fos protein, which is a product of the early c-fos gene expression, an immunohystochemical investigation of brain section with automated counting of Fos-positive cells was performed. The peculiarities of c-fos gene induction were studied in the PVH.

Data set [9] can be described thus: Acute toxicity, single intramuscular administration. The format is in vivo, white mongrel male mice. Conditions: mice, 1-5 mg/kg, dose exceeding the therapeutic one by more than 5000 times.
Text: as §5
Acute toxicity was studied on 66 white mongrel male mice with body weight of 20-22 g. The animals were randomly subdivided into 6 equal groups. The substance was administered to the animals once, intramuscularly, in the doses of 1 mg/kg, 2 mg/kg, 3 mg/kg, 4 mg/kg, 5 mg/kg in 0.25 ml of sterile 0.9% NaCl solution. Control animals received 0.9% NaCl solution in the same volume.

Setting [10] is: 10 μg/ml, human blood serum of 5 healthy donors (FIG. 5).
Setting [11] is: end of the test, depending on the dosage and method of administration, placebo 10-11%.

Structures are written as SMILES. Positions of bridges follow the written chain, without caps; N, C: chain ends. Non-standard residues stand in square brackets, D forms with d. Residues, ends and D or L forms follow the SMILES beside them. *: point of attachment. Ileψ(thiazoline)Cys = CC[C@H](C)[C@H](N)C1=N[C@H](C(=O)*)CS1; dOrn = NCCC[C@@H](N)C(=O)O

For the compound `CC(C)C[C@H](NC(=O)[C@H](Cc1ccccc1)NCC(=O)O)C(=O)O` [N-CMPL, N-carboxymethyl-Phe-Leu], the “activity of blood serum enkephalinases” value in [1] (setting [10]) is “comparable”.
In the case of `CC[C@H](C)[C@H](N)C1=N[C@H](C(=O)N[C@@H](CC(C)C)C(=O)N[C@H](CCC(=O)O)C(=O)N[C@H](C(=O)N[C@H]2CCCCNC(=O)[C@H](CC(N)=O)NC(=O)[C@@H](CC(=O)O)NC(=O)[C@H](Cc3cnc[nH]3)NC(=O)[C@@H](Cc3ccccc3)NC(=O)[C@H]([C@@H](C)CC)NC(=O)[C@@H](CCCN)NC2=O)[C@@H](C)CC)CS1` [bacitracin] ({Ileψ(thiazoline)Cys}-L[dE]IK[dOrn]I[dF]H[dD]N; lactam 4-C), the “activity of blood serum enkephalinases” value in data set [1] (50 μg/ml, human blood serum of 5 healthy donors) was “comparable”.
As to `N[C@@H](CCC(=O)O)C(=O)N[C@@H](CC(=O)O)C(=O)NCC(=O)O` [peptide H-Glu-Asp-Gly-OH, glutamyl-aspartyl-glycine] (H-Glu-Asp-Gly-OH), in [2], the “dopamine content in brain cortex” value was “reliable increase”, the “noradrenaline content in brain cortex” value is given as “reliable increase” and the “serotonin content in brain cortex” value is “reliable increase”. Moreover, the “sub-acute toxicity: side effects” value in data set [3] was “absence of side effects”. The “content of c-Fos protein in pinealocytes” value in data set [4] (0.5 μg per animal intranasal (FIG. 3)) is listed as “Mild but reliable increase”. The “osmotic stress induced dilation of capillaries and pericapillary space in pineal gland parenchyma” value in data set [4] (0.5 μg per animal intranasal (FIG. 4)) is listed as “partial reduction”. In [5], the “dopamine content in blood serum” value is “decrease”, the “histamine content in blood serum” value is “decrease” and the “serotonin content in blood serum” value is “decrease”. Moreover, the “study participants showing good tolerability to hypoxia” value in data set [6] (5000 meters, 60 minutes, placebo 60%) was 80-90%. The “reduction of reactive anxiety as compared to the control group” value in data set [6] (after 2 days of administration, different doses, intranasal or intramuscular) is reported as 10-13%. For the same compound, the “lung ventilation in case of dosed physical load” value in data set [6] (after hypoxia impact) is reported as “reduced lung ventilation”. Moreover, the “increase in heart rate (HR) caused by hypoxia” value in [6] (depending on the dose and method of administration, placebo 30-40%) is reported as 10-20%. In addition, in [6] (setting [11]), the “increase in maximum oxygen consumption” value was 15-20% and the “increase in physical working capacity index (PWC 170)” value is listed as 15-20%. In data set [6] (intramuscular administration, different doses), the “subjective status under hypoxic hypoxia versus initial level” value is “equal to the initial level”. Further, the “decrease in the subjective status under hypoxic hypoxia” value in data set [6] (intranasal infusion) was 4-5%. In [6] (next day after the impact of hypoxia, independently of the method of administration), the “reactive anxiety level versus initial level” value is recorded as “equal to the initial one”. Further, the “subjective status better than the initial level” value in data set [6] (next day after the impact of hypoxia, intramuscular administration) is listed as 15%. Besides, in [6] (next day after the impact of hypoxia, intranasal infusion), the “subjective status better than the initial level” value was found to be 10%. Besides, in [7], the “chronic toxicity: side effects” value is given as “absence of side effects”; the “effect on ESR, erythrocyte resistance and biochemical indices of the blood serum” value is given as “No reliable effect”; the “pathologic changes (general status, blood indices, internal organs, cardiovascular and respiratory systems, liver and kidney functions)” value is on record as “did not reveal any pathologic changes”. For the same compound, in data set [8] (0.01 μg per rat intraperitoneal, stress-resistant rats, both not exposed and exposed to stress), the “number of Fos-positive neural cells in PVH” value is given as “increase”. In data set [8] (0.1 μg per rat intraperitoneal, against the background of stress, stress-resistant animals), the “number of Fos-positive neurons in PVH” value is recorded as “increased”. Moreover, the “number of Fos-positive neural cells in PVH” value in data set [8] (0.1 μg per rat intraperitoneal, both stress-resistant and stress-prone rats) was “reduced”. For the same compound, the “activity of blood serum enkephalinases” value in [1] (setting [10]) is reported as “inhibited”. The “acute toxicity: toxic reactions” value in [9] is recorded as “does not cause toxic reactions”.
